pIC50: −log10 of the molar value. Structures can show the parent of a compound that is named as a salt.
Columns and labels:
[1] = system: Chinese Hamster Ovary (CHO) Cells; assay: Cytotoxic activity test (cell proliferation assay), CHO cells as normal cells; assay type: cell-based; settings: for pIC50: Cricetulus griseus, 50% inhibition of cellular growth following 48 h of drug exposure; for toxicity in CHO compared with mitoxantrone (in words): versus mitoxantrone
Text: (§1) We evaluated the ability of the compounds to inhibit the growth of human oral epidermoid carcinoma cells (KB cell line), human cervical carcinoma cells of ME 180 (GBM8401) and Chinese hamster ovary (CHO) cells as normal cells, and lipid peroxidation in model membranes, respectively.
(§2) Cytotoxic Activity Test. Human oral epidermoid carcinoma cells (KB cell line), human cervical carcinoma cells of ME 180 (GBM8401) and Chinese hamster ovary (CHO) cells grown in plateau phase were cultivated, and the cell proliferation assay was performed as previously described. Inhibition of cellular growth was calculated by comparison of the mean values of the test compound (N=3) with the control (N=6-8) activity: (1-test compound/control)×100.

[2] = system: Iron-induced Lipid Peroxidation in Rat Brain Homogenates; assay: Assay of lipid peroxidation (TBA method); assay type: biochemical, Wistar rats; settings: for Inhibition (%) 0.005 mM / Inhibition (%) 0.05 mM / Inhibition % (0.5 mM) / Inhibition (%) 5 mM: Mean ± S.E., n = 4; for Inhibition (%) 0.005 mM / efficiency in lipid peroxidation inhibition versus ascorbic acid, (+)-α-tocopherol and mitoxantrone (in words): 0.005 mM; for Inhibition % (0.5 mM) / inhibitory effect on lipid peroxidation compared to ascorbic acid, (+)-α-tocopherol and mitoxantrone (in words): 0.5 mM
Protocol: The inhibitory effect on lipid peroxidation of these compounds were evaluated with rat brain phospholipid liposomes which provide an ideal model system for lipid peroxidation studies by Teng C. M., et. al., Eur. J. Pharmacol., vol. 303, pp. 129-139 (1996).
Assay of Lipid Peroxidation. Rat brain homogenate was prepared from the brains of freshly killed Wistar rats and its peroxidation in the presence of iron ions was measured by the thiobarbituric acid (TBA) method as described. The extent of lipid peroxidation was estimated as thiobarbituric acid-reactive substances and was read at 532 nm in a spectrophotometer (Shimadzu UV-160).

[3] = system: Human Cervical Carcinoma Cells of ME 180 (GBM8401); assay: Cytotoxic activity test (cell proliferation assay), GBM8401 cells; assay type: cell-based; settings: for pIC50: Homo sapiens, ME-180, GBM8401 cells, 50% inhibition of cellular growth following 48 h of drug exposure
Text: as §1, §2

[4] = system: Human Oral Epidermoid Carcinoma Cells (KB cell line); assay: Cytotoxic activity test (cell proliferation assay), KB cells; assay type: cell-based; settings: 50% inhibition of cellular growth following 48 h of drug exposure
Text: as §1, §2

Structure (SMILES)	pIC50 [1]	Inhibition (%) 0.005 mM ([2]; Table 3) [%]	Inhibition (%) 0.05 mM ([2]; Table 3) [%]	Inhibition % (0.5 mM) ([2]; Table 2) [%]	Inhibition % (0.5 mM) ([2]; Table 3) [%]	Inhibition (%) 5 mM ([2]; Table 3) [%]	pIC50 [3]	pIC50 [4]	toxicity in CHO compared with mitoxantrone (in words) [1]	efficiency in lipid peroxidation inhibition versus ascorbic acid, (+)-α-tocopherol and mitoxantrone (in words) [2]	inhibitory effect on lipid peroxidation compared to ascorbic acid, (+)-α-tocopherol and mitoxantrone (in words) [2]	cytotoxicity on GBM in vitro assay (in words) [3]
O=C1c2c(O)ccc(O)c2C(=O)c2c(NCCNCCO)ccc(NCCNCCO)c21 [mitoxantrone-HCl, reference compound]	5.40	10 ± 1.1	52 ± 3.5	64 ± 2.8	64 ± 2.1	100	5.82	5.77				
CC(C)OC1c2cccc(Cl)c2C(=O)c2cccc(Cl)c21 (centres unmarked) [Compound 3d, 10-(2-Propyloxy) 1,5-dichloro-9(10 H)-anthracenone]	4.82			13 ± 1.3			4.18	4.66				
Cc1ccc(NC2c3cccc(Cl)c3C(=O)c3cccc(Cl)c32)cc1 (centres unmarked) [Compound 4d, 10-(p-Toluidino) 1,5-dichloro-9(10 H)-anthracenone]	5.52	33 ± 2.7	94 ± 3.5	100	100	100	5.34	4.95	more toxic in CHO than mitoxantrone	significantly more efficient	better inhibitory effect	high cytotoxicity and significant activity
CCCCOC1c2cccc(Cl)c2C(=O)c2cccc(Cl)c21 (centres unmarked) [Compound 3e, 10-(Butyloxy) 1,5-dichloro-9(10 H)-anthracenone]	5.10			31 ± 3.7			4.53	4.53				
CCCOC1c2cccc(Cl)c2C(=O)c2cccc(Cl)c21 (centres unmarked) [Compound 3c, 10-Propyloxy 1,5-dichloro-9(10 H)-anthracenone]	4.38			29 ± 2.5			4.95	5.74				
O=C1O[C@H]([C@@H](O)CO)C(O)=C1O [ascorbic acid, reference compound]		7 ± 0.5	22 ± 2.2	87 ± 3.1	87 ± 2.5	100						
Cc1cccc(NC2c3cccc(Cl)c3C(=O)c3cccc(Cl)c32)c1 (centres unmarked) [Compound 4b, 10-(m-Toluidino) 1,5-dichloro-9(10 H)-anthracenone]	5.21	23 ± 2.4	92 ± 4.1	100	100	100	4.95	5.02		significantly more efficient	better inhibitory effect	
CCOC1c2cccc(Cl)c2C(=O)c2cccc(Cl)c21 (centres unmarked) [Compound 3b, 10-Ethoxy 1,5-dichloro-9(10 H)-anthracenone]	5.24			7 ± 0.1			4.66	5.21				
CC(C)COC1c2cccc(Cl)c2C(=O)c2cccc(Cl)c21 (centres unmarked) [Compound 3f, 10-(iso-Butyloxy) 1,5-dichloro-9(10 H)-anthracenone]	4.70			38 ± 3.1			4.36	4.83				
COC1c2cccc(Cl)c2C(=O)c2cccc(Cl)c21 (centres unmarked) [Compound 3a, 10-Methoxy 1,5-dichloro-9(10 H)-anthracenone]	5.54			7 ± 0.1			4.63	5.06	more toxic in CHO than mitoxantrone			
O=C1c2cccc(Cl)c2C(OCc2ccccc2)c2cccc(Cl)c21 (centres unmarked) [Compound 3g, 10-Benzyloxy 1,5-dichloro-9(10 H)-anthracenone]	4.61			16 ± 1.5			4.73	4.03				
Cc1ccccc1NC1c2cccc(Cl)c2C(=O)c2cccc(Cl)c21 (centres unmarked) [Compound 4c, 10-(o-Toluidino) 1,5-dichloro-9(10 H)-anthracenone]	5.42			73 ± 3.5			5.62	5.47	more toxic in CHO than mitoxantrone			high cytotoxicity and significant activity
Cc1c(C)c2c(c(C)c1O)CC[C@@](C)(CCC[C@H](C)CCC[C@H](C)CCCC(C)C)O2 [(+)-α-tocopherol, reference compound]		0	0	53 ± 4.4	53 ± 1.7	100						
CCN(CC)C1c2cccc(Cl)c2C(=O)c2cccc(Cl)c21 (centres unmarked) [Compound 4a, 10-Diethylamino 1,5-dichloro-9(10 H)-anthracenone]	4.82			12 ± 1.4			5.12	4.76				high cytotoxicity and significant activity
